Assays:
[1] = Inhibition of HIV1 reverse transcriptase Y181C mutant infected in human MT2 cells assessed as protection against viral infection by MTT assay
[2] = Inhibition of HIV1 reverse transcriptase K103N/Y181C double mutant infected in human MT2 cells assessed as protection against viral infection by MTT assay

## Cc1cc(Oc2ccccc2OCCn2ccc(=O)[nH]c2=O)cc2cc(C#N)ccc12
[1]
  EC50: 800 nM
[2]
  EC50: 2900 nM

## Cc1c(Oc2ccccc2OCCn2ccc(=O)[nH]c2=O)cc(C(C)C)c2ccc(C#N)cc12
[1]
  EC50: 400 nM
[2]
  EC50: 100 nM

## Cc1c(Oc2ccccc2OCCn2ccc(=O)[nH]c2=O)cc(CC2CC2)c2ccc(C#N)cc12
[1]
  EC50: 900 nM
[2]
  EC50: 1200 nM

## Cc1c(Oc2ccccc2OCCn2ccc(=O)[nH]c2=O)c(C)c2cc(C#N)ccc2c1C
[2]
  EC50: 790 nM

## Cc1cc2ccc(C#N)cc2c(C)c1Oc1ccccc1OCCn1ccc(=O)[nH]c1=O
[1]
  EC50: > 100 nM
[2]
  EC50: 1700 nM

## Cc1c(Oc2ccc(F)cc2OCCn2ccc(=O)[nH]c2=O)cc(Cl)c2ccc(C#N)cc12
[1]
  EC50: 27 nM
[2]
  EC50: 500 nM

## Cc1c(Oc2ccccc2OCCn2ccc(=O)[nH]c2=O)cc(Cl)c2ccc(C#N)cc12
[1]
  EC50: 58 nM

## N#Cc1ccc2ccc(Oc3ccccc3OCCn3ccc(=O)[nH]c3=O)cc2c1
[1]
  EC50: 2600 nM
[2]
  EC50: 4000 nM

## Cc1c(Oc2ccc(Cl)cc2OCCn2ccc(=O)[nH]c2=O)cc(F)c2ccc(C#N)cc12
[1]
  EC50: 330 nM
[2]
  EC50: > 100 nM

## N#Cc1ccc2c(F)cc(Oc3ccc(F)cc3OCCn3ccc(=O)[nH]c3=O)c(Cl)c2c1
[1]
  EC50: 72 nM
[2]
  EC50: 1600 nM

## N#Cc1ccc2c(Cl)cc(Oc3ccc(F)cc3OCCn3ccc(=O)[nH]c3=O)cc2c1
[1]
  EC50: 1100 nM
[2]
  EC50: 4100 nM

## Cc1cc(Oc2ccc(F)cc2OCCn2ccc(=O)[nH]c2=O)c(F)c2cc(C#N)ccc12
[1]
  EC50: 1200 nM
[2]
  EC50: 3800 nM

## N#Cc1ccc2c(Cl)cc(Oc3ccccc3OCCn3ccc(=O)[nH]c3=O)cc2c1
[1]
  EC50: 890 nM
[2]
  EC50: 890 nM

## Cc1cc(Oc2ccccc2OCCn2ccc(=O)[nH]c2=O)c(C)c2cc(C#N)ccc12
[1]
  EC50: 62 nM
[2]
  EC50: 150 nM

## CCc1cc(Oc2ccccc2OCCn2ccc(=O)[nH]c2=O)c(C)c2cc(C#N)ccc12
[1]
  EC50: 150 nM
[2]
  EC50: 300 nM

## N#Cc1ccc2c(F)cc(Oc3ccccc3OCCn3ccc(=O)[nH]c3=O)c(Cl)c2c1
[1]
  EC50: 90 nM
[2]
  EC50: 310 nM

## N#Cc1cc2c(Oc3ccc(F)cc3OCCn3ccc(=O)[nH]c3=O)cc(F)cn2c1
[1]
  EC50: 250 nM
[2]
  EC50: 10 nM

## COCc1cc(Oc2ccccc2OCCn2ccc(=O)[nH]c2=O)c(C)c2cc(C#N)ccc12
[1]
  EC50: 690 nM
[2]
  EC50: 790 nM

## Cc1cc(Oc2ccccc2OCCn2ccc(=O)[nH]c2=O)c(Cl)c2cc(C#N)ccc12
[1]
  EC50: 42 nM
[2]
  EC50: 120 nM

## N#Cc1ccc2cc(Oc3ccccc3OCCn3ccc(=O)[nH]c3=O)ccc2c1
[1]
  EC50: > 100 nM
[2]
  EC50: 5600 nM

## Cc1cc(Oc2ccc(F)cc2OCCn2ccc(=O)[nH]c2=O)c(C)c2cc(C#N)ccc12
[1]
  EC50: 28 nM
[2]
  EC50: 410 nM

## Cc1c(Oc2ccc(F)cc2OCCn2ccc(=O)[nH]c2=O)cc(F)c2ccc(C#N)cc12
[1]
  EC50: 31 nM
[2]
  EC50: 980 nM

## COc1cc(Oc2ccccc2OCCn2ccc(=O)[nH]c2=O)c(C)c2cc(C#N)ccc12
[1]
  EC50: 670 nM
[2]
  EC50: 1600 nM

## N#Cc1ccc2ccc(Oc3ccc(F)cc3OCCn3ccc(=O)[nH]c3=O)cc2c1
[1]
  EC50: 1200 nM
[2]
  EC50: 9400 nM

## CCOc1cc(Oc2ccccc2OCCn2ccc(=O)[nH]c2=O)c(C)c2cc(C#N)ccc12
[1]
  EC50: 200 nM
[2]
  EC50: 800 nM

## Cc1c(Oc2ccccc2OCCn2ccc(=O)[nH]c2=O)cc(F)c2ccc(C#N)cc12
[1]
  EC50: 60 nM
[2]
  EC50: 890 nM

## CCCc1cc(Oc2ccccc2OCCn2ccc(=O)[nH]c2=O)c(C)c2cc(C#N)ccc12
[1]
  EC50: 630 nM
[2]
  EC50: 990 nM
